# Data from PubChem BioAssay AID2740 (NMMLSC, 2010).
# Activity calls are given as the source filed them.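 Rule for the calls: active = compounds whose fitted half-maximal concentration for changing the GFP signal is at or below a set limit; inactive = the rest.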
# Assay: TOR pathway RPL19A-GFP modulators, concentration series – cell-based, S. cerevisiae, flow cytometry, MLPCN hits, dose response (AID 2740);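 note: background is signal of the same compound in parental non-GFP s288c yeast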
# Settings: S. cerevisiae RPL19A-GFP strain, flow cytometry fluorescence, 3 h; at 33 µM (top of the series)
row,SMILES,"GFP fluorescence, lower = active (kMESF (background-subtracted))"
1,O=C(Oc1ccnc2cc(Cl)ccc12)N1CCOCC1,37.6 (inactive)
2,CCCOc1ccc(C(=O)NNC(=S)NC(=O)c2ccccc2)cc1,45.7 (inactive)
3,Cc1cccc2c1NC(=O)/C2=C\C(=O)c1cccs1,34.4 (inactive)
4,COc1cc(/C=C2\C(=O)ON=C2c2ccccc2)cc(OC)c1OC,33.4 (inactive)
5,CCN(CC)c1ccc2cc(-c3nc(-c4ccc(OC)cc4)cs3)c(=O)oc2c1,40 (inactive)
6,O=[N+]([O-])c1cc(O)c2ncccc2c1,45 (inactive)
7,CC(Oc1ccc2ccccc2c1)C(=O)NNC(=S)NC(=O)c1ccco1 (configuration not stated),34.3 (inactive)
8,CC[C@@]1(c2ccccc2OC)ON(c2ccccc2C(F)(F)F)C1=O,35.9 (inactive)
9,N#Cc1ccc(N=c2ssnc2Cl)cc1,42 (inactive)
10,CCCCOc1ccc(C(=O)NNC(=S)NC(=O)CC)cc1,43 (inactive)
11,O=C1c2cccc3c([N+](=O)[O-])ccc(c23)C(=O)N1c1ccccn1,55.8 (inactive)
12,O=C(c1ccc(Cl)cc1)N1CCN(c2cccc3[nH]ccc23)CC1,41.9 (inactive)
13,Cc1ccc(/C=C2\C(=O)NC(=S)N(c3ccc(F)cc3)C2=O)s1,38 (inactive)
14,COc1ccc([C@@]2(C(C)C)ON(c3ccccc3C(F)(F)F)C2=O)cc1,45.9 (inactive)
15,COc1ccc(OCC(=O)NNC(=S)NC(=O)C2CCCCC2)cc1,38 (inactive)
16,O=[N+]([O-])c1ccc(-c2cn3nc(-c4ccccc4)c(-c4ccccc4)nc3n2)cc1,48.8 (inactive)
17,O=C(Nc1cccc(C(F)(F)F)c1)Oc1ccc(Cl)c2cccnc12,39.4 (inactive)
18,Cc1ccc(S(=O)(=O)N2CCCC2C(=O)NCc2ccncc2)cc1 (configuration not stated),39.8 (inactive)
19,CCN(CC)c1ccc2cc(-c3nc4ccccc4[nH]3)c(=O)oc2c1,42.6 (inactive)
20,CCCOc1ccc(C(=O)NNC(=S)NC(=O)CC)cc1,50.5 (inactive)
21,CS(=O)(=O)c1nc(-c2ccccc2)cc(C(F)(F)F)n1,31.9 (inactive)

row,SMILES,"GFP fluorescence, lower = active (kMESF (background-subtracted))"
1,CCC(=O)Nc1ccc(NC(=O)c2cc3ccccc3o2)c(OC)c1,40.4 (inactive)
2,CCN1C(=O)/C(=C\C(=O)c2cccs2)c2cc(Br)ccc21,34.5 (inactive)
3,COc1cc(SSc2cc(OC)cc([N+](=O)[O-])c2N)c(N)c([N+](=O)[O-])c1,32.6 (inactive)
4,CN1C(=O)/C(=N\OC(=O)c2cccc3ccccc23)c2ccccc21,42.9 (inactive)
5,O=C(c1ccc(Cl)c([N+](=O)[O-])c1)N1CCN(c2ccccc2)CC1,46.4 (inactive)
6,O=C(COc1ccccc1)NNC(=S)NC(=O)c1ccc(Cl)cc1Cl,28 (inactive)
7,CC1=C(C)/C(=N\OS(=O)(=O)c2ccc(C)cc2)C=CC1=O,16.9 (inactive)
8,CC1=C/C(=N\OS(=O)(=O)c2ccccc2)C(C(C)C)=CC1=O,21.4 (inactive)
9,CC1=C(C)/C(=N\OS(=O)(=O)c2ccccc2)C=CC1=O,24.9 (inactive)
10,Clc1ccc(N=c2ssnc2Cl)cc1,36.9 (inactive)
11,COCCN1C(=O)/C(=C/c2ccc(N3CCCC3)cc2C)SC1=S,43 (inactive)
12,O=C1c2ccccc2C(=O)N1OS(=O)(=O)c1ccccc1,43.2 (inactive)
13,CCCc1cc(NCc2ccccn2)n2nc(C)c(-c3ccccc3)c2n1,39.1 (inactive)
14,COc1cc(/C=C2\CC/C(=C\c3cc(OC)c(O)c(OC)c3)C2=O)cc(OC)c1O,39.6 (inactive)
15,COC(=O)/C(=C/c1c[nH]c2ccccc12)[N+](=O)[O-],42.8 (inactive)
16,Cc1ccc(N2C(=O)C(Cl)=C(Nc3c(C)n(C)n(-c4ccccc4)c3=O)C2=O)cc1,39 (inactive)
17,CC(C)Cn1c(=O)c(C(=O)Nc2ccncc2)c(O)c2ccccc21,5.71 (inactive)
18,O=C(OCn1ncc(Br)c(Br)c1=O)c1ccc(F)cc1,37.3 (inactive)
19,COc1ccccc1NC1=C(Cl)C(=O)N(c2ccccc2)C1=O,39.5 (inactive)
20,COc1ccc(NC2=C(Cl)C(=O)N(CCc3ccccc3)C2=O)cc1,41.6 (inactive)
21,CS(=O)(=O)c1sc(C#N)c2c1C(=O)CC(c1ccccc1)C2 (configuration not stated),38.5 (inactive)

row,SMILES,"GFP fluorescence, lower = active (kMESF (background-subtracted))"
1,CS(=O)(=O)N1N=C(c2ccccc2)CC1c1ccc2c(c1)OCO2 (configuration not stated),36.9 (inactive)
2,Cc1ccc(/C=C2/SC(=S)N(C3CCCCC3)C2=O)o1,38.3 (inactive)
3,Cc1ccc(/C=c2\sc3nc(-c4cccs4)nn3c2=O)o1,44.7 (inactive)
4,COc1ccc(N2C(=O)C(Cl)=C(NCc3ccccc3)C2=O)cc1,44.3 (inactive)
5,Cc1[nH][nH]c(=O)c1C(c1ccc(-c2ccc(Cl)c(Cl)c2)o1)c1c(C)[nH][nH]c1=O,43.4 (inactive)
6,CC[C@]1(c2ccccc2OC)ON(c2ccccc2C(F)(F)F)C1=O,33.7 (inactive)
7,Oc1c(CN2CCN(c3ccc(F)cc3)CC2)cc(Cl)c2cccnc12,40.4 (inactive)
8,C=CCOc1cccc(C(=O)/C=C2/C(=O)Nc3ccccc32)c1,40.7 (inactive)
9,N=C1S/C(=C\c2ccco2)C(=O)N1c1nccs1,47.2 (inactive)
10,N/C(=N\OC(=O)c1ccccc1Cl)c1ccc(Cl)cc1,38.2 (inactive)
11,Cc1ccc(C(CC(=O)O)NC(=O)c2ccc(S(=O)(=O)N3CC(C)OC(C)C3)cc2)cc1 (configuration not stated),39.2 (inactive)
12,CC(c1ccccc1)N1C(=O)/C(=C/c2ccncc2)SC1=S (configuration not stated),20.6 (inactive)
13,CC(C)[C@@]1(c2ccc(Cl)cc2)ON(c2ccccc2C(F)(F)F)C1=O,39.1 (inactive)
14,O=c1/c(=C/c2cccc3ccccc23)sc2ncnn12,50.3 (inactive)
15,O=C1NC(=O)N(CCc2ccc(F)cc2)C(=O)/C1=C/c1cccs1,38.2 (inactive)
16,Cc1ccc(C(=O)Sc2cccccc2=O)cc1,27.8 (inactive)
17,O=C(O)c1cc[c]([Hg][Cl])cc1,15.7 (inactive)
18,CC(C)[C@]1(c2ccccc2)ON(c2ccccc2C(F)(F)F)C1=O,36 (inactive)
19,CN(C)NC(=S)Nc1ccc(S(=O)(=O)N2CCCCC2)cc1,44.8 (inactive)
20,COc1cc(/C=C2\C(=O)N(CCC#N)N=C2C)c(Br)cc1OC(C)C,39.9 (inactive)
21,COc1ccc(N=Cc2nc(-c3ccccc3)oc2OC(C)=O)cc1,40.2 (inactive)

row,SMILES,"GFP fluorescence, lower = active (kMESF (background-subtracted))"
1,O=[N+]([O-])c1cc(CN2CCN(c3ccccc3)CC2)c(O)c2ncccc12,45.6 (inactive)
2,CCN(CC(=O)NC(C)(C)C)C(=O)COc1c(Cl)cc(Cl)c2ccc(C)nc12,50.3 (inactive)
3,COc1ccccc1OCCCc1c(C)n[nH]c1C,37.6 (inactive)
4,COc1cc(CNC(=O)CCCCCCC(C)C)ccc1O,48.5 (inactive)
5,CN(C)/C=C/C(=O)c1ccc(-c2ccc(Cl)cc2Cl)o1,40.9 (inactive)
6,CC1=CC(=O)C(C(C)C)=C/C1=N/OS(=O)(=O)c1ccccc1,23.9 (inactive)
7,COc1ccccc1[C@@]1(C)ON(c2ccccc2C(F)(F)F)C1=O,22.7 (inactive)
8,Cc1ccc(C(=O)NNC(=S)NC(=O)c2ccco2)cc1,49.1 (inactive)
9,O=[N+]([O-])c1ccc(Sc2nc3ccccc3o2)c([N+](=O)[O-])c1,45.5 (inactive)
10,Cc1c(C(=O)Nc2nc(-c3ccccn3)cs2)oc2ccccc12,33.3 (inactive)
11,O=C(Nc1nnc(-c2ccc(F)cc2)o1)c1cc(Cl)sc1Cl,51.4 (inactive)
12,N/C(=N\OC(=O)c1ccc(Cl)cc1Cl)c1ccccc1,39.4 (inactive)
13,O=[N+]([O-])c1ccc(N=Nc2c(Cl)cc(O)cc2Cl)cc1,37.9 (inactive)
14,N/C(=N\OC(=O)c1cccc(Br)c1)c1ccccc1,40.8 (inactive)
15,Cn1c(=O)c(C(=O)NNC(=O)c2ccc(Br)cc2)c(O)c2ccccc21,22.3 (inactive)
16,Cc1ccc(C2=NOC(=O)/C2=C\c2ccc(C)o2)cc1,22 (inactive)
17,CC[C@H](C)/C=C(C)/C=C/C1=CC2=C(Cl)C(=O)[C@@](C)(OC(C)=O)C(=O)C2=CO1,4.51 (inactive)
18,COC(=O)CCC(=O)OC1(C)C(=O)C2=COC(c3ccc(OC)cc3)=CC2=C(Br)C1=O (configuration not stated),32.8 (inactive)
19,NC(=O)COc1ccc(C(=O)/C=C2/C(=O)Nc3ccccc32)cc1,40.3 (inactive)
